The subject of this experiment is ICR male mice. Briefly: In vivo tetrabenazine-induced hypothermia assay. The following applies: for activity discovered through in vivo tetrabenazine-induced hypothermia test: antidepressant-like activity in mice; for temperature recovery of TBZ-induced hypothermic response: oral gavage 60 min before TBZ 85 mg/kg i.p., 120 min after TBZ challenge. The source says: The around 70% of PDC-1421 in Example 1 are composed of sucroester (34%), saponin (18%) and xanthone (17%). Some active compounds of in the powder product of Example 1, including polygalatenosides A/B/C (2nd fraction 1), ploygalaxanthone III, sibiricoses A5, and 7-O-methylmangiferin are also discovered through in vivo tetrabenazine-induced hypothermia test (one of rodent models for evaluating antidepressant-like activity in mice). Imipramine (as the positive control), PDC-1421, 1st Fraction 10-19, 1st Fraction 33, 2nd Fraction-1 (wherein the major components are polygalatenosides A/B/C), 2nd Fraction-3, TMCA, Polygalaxanthone III, Onjisaponin B, Sibiricose A5, 7-O-Methylmangiferin and Sibiricaxanthone B are dissolved in water for injection (WFI) and administered by oral gavage. The dosing volume is 10 mL/kg. Test substances and vehicle (WFI) are administered by oral gavage to groups of 8 ICR male mice weighing 23±3 g for 60 minutes, and then tetrabenazine (TBZ, 85 mg/kg) is injected intraperitoneally. Body temperature is recorded before (0 min), and 60, 90 and 120 min after TBZ challenge. Therefore, drug-induced hypothermia (e.g., TBZ and reserpine) animal model is a typical experiment to evaluate the activity of NRI on depression. Temperature recovery of TBZ-induced hypothermic response is considered as indication of a anti-depressant activity.

As to `COc1cc2c(=O)c3c(O)c([C@@H]4O[C@H](CO)[C@@H](O)[C@H](O)[C@H]4O)c(O)cc3oc2cc1O` [7-O-Methylmangiferin], the “activity discovered through in vivo tetrabenazine-induced hypothermia test” value (shortened to “activity discovered through”) is “active” and the “temperature recovery of TBZ-induced hypothermic response” value (shortened to “temperature recovery”) is “had a temperature recovery”.

Take `COc1cc2c(=O)c3c(O)c([C@@H]4O[C@H](CO[C@@H]5OC[C@](O)(CO)[C@H]5O)[C@@H](O)[C@H](O)[C@H]4O)c(O)cc3oc2cc1O` [Polygalaxanthone III]: the “activity discovered through” value is on record as “active” and the “temperature recovery” value is given as “had a temperature recovery”.

As to `COc1cc(/C=C/C(=O)O[C@H]2[C@H](O)[C@@H](CO)O[C@@]2(CO)O[C@H]2O[C@H](CO)[C@@H](O)[C@H](O)[C@H]2O)ccc1O` [Sibiricoses A5, Sibiricose A5], the “activity discovered through” value is “active” and the “temperature recovery” value is on record as “had a temperature recovery”.
